Measurements taken from patent US20260250317A1, “COMPOUND AND USE OF THE SAME” (JAPAN SCIENCE AND TECHNOLOGY AGENCY, priority 2022, published 2026).
“Also recorded” adds a separate entry of the source. Starred links: 1 amine or outer side, 2 acyl side, 3 side chain; linkers in the order of their positions; H or OH if unused. Non-standard residues stand in square brackets, D forms with d. Residues, ends and D or L forms follow the SMILES beside them. X1 = O=C(C(Cc1ccc(/N=N/c2ccccc2)cc1)N[*:1])[*:2]

How the values were obtained:
[1] = Rheological evaluation (storage modulus G' and loss modulus G'', rotational rheometer); type: physicochemical; settings: trans form, 1.0 wt % in D-MEM buffer pH 8.5, incubated 3 days at 37° C. in dark
Method: The trans form of the compound (P1) was dispersed in a D-MEM buffer solution (4 mM HEPES, containing 1 wt % NaHCO3, pH 8.5) to produce a dispersion liquid including 1.0 wt % of the compound (P1). This dispersion liquid was incubated for 3 days in a dark place at 37° C. in a 5% CO2 atmosphere. Thereafter, the storage modulus G′ and loss modulus G″ were measured using a rotational rheometer (Malvern Panalytical, Kinexus lab+).
This dispersion liquid was incubated for 3 days in a dark place at 37° C. in a 5% CO2 atmosphere. The storage modulus G′ and loss modulus G″ were then measured using a rotational rheometer (Malvern Panalytical, Kinexus lab+).

[2] = Droplet fusion and control by light irradiation
Method: A mixed aqueous solution including 5 wt % DEX550k and 5 w % PEG35k was produced in a microtube. Next, the compound (P1) was added to the mixed aqueous solution to be 1 wt % thereof, dissolved, and stirred for 1 minute using a vortex. […] The produced droplets were position-selectively irradiated with 350 nm light for 6 minutes. The droplet dispersion liquid was placed in a transparent cell having a depth of 1 mm and light irradiation was performed using a fluorescence microscope (Olympus IX-73). A U-HGLGPS (brightness: 130 W) was used as the light source for the fluorescence microscope and light was irradiated with a brightness output setting of 25%.
To observe the localization of the compound (P), the compound (P1) was labeled using Cy5. A mixed aqueous solution including 5 wt % dextran (550 kDa; DEX550k) and 5 wt % polyethylene glycol (35 kDa; PEG35k) was produced in a microtube. Next, the Cy5-labeled compound (P1) was added to the mixed aqueous solution to be 1 wt % thereof, dissolved, and stirred for 1 minute using a vortex. […] The droplets were irradiated with 350 nm light for 5 seconds. The droplet dispersion liquid was placed in a transparent cell having a depth of 1 mm and light irradiation was performed using a fluorescence microscope (Olympus IX-73). A U-HGLGPS (brightness: 130 W) was used as the light source for the fluorescence microscope and light was irradiated with a brightness output setting of 25%. Before and after light irradiation, the droplets were observed using a phase-contrast microscope (Olympus IX-73 connected to a phase-contrast light source) and a fluorescence microscope (Olympus IX-73 connected to a fluorescence light source U-HGLGPS).
A mixed aqueous solution including 5 wt % dextran (550 kDa; DEX550k) and 5 wt % polyethylene glycol (35 kDa; PEG35k) was produced in a microtube. Next, the labeled compound (P1) was added to the mixed aqueous solution to be 1 wt % thereof, dissolved, and stirred for 1 minute using a vortex. […] The droplets were subjected to any of the following light irradiation operations (1) to (3). The light irradiation was performed in the same manner as described above. • (1) No light irradiation. • (2) Irradiation with 350 nm light for 5 seconds. • (3) Irradiation with 350 nm light for 5 seconds, followed by irradiation with 550 nm light for 5 seconds.
The droplets were observed under a phase-contrast microscope before and after carrying out the light irradiation operation under the above-described conditions. In (1), an image “before carrying out the light irradiation operation” was taken and then an image “after carrying out the light irradiation operation” was taken within 1 minute. No light irradiation was performed between “before carrying out the light irradiation operation” and “after carrying out the light irradiation operation”. In (2), an image “after carrying out the light irradiation operation” was taken immediately after 5 seconds of irradiation with 350 nm light. In (3), 350 nm light was irradiated for 5 seconds, immediately followed by irradiating 550 nm light for 5 seconds, and an image “after carrying out the light irradiation operation” was taken immediately after the 550 nm light was irradiated for 5 seconds.
A mixed aqueous solution including 5 wt % DEX550k and 5 w % PEG35k was produced in a microtube. Next, the compound (P2) was added to the mixed aqueous solution to be 1 wt % thereof, dissolved, and stirred for 1 minute using a vortex. […] The produced droplets were irradiated with 350 nm light for 5 seconds. The droplet dispersion liquid was placed in a transparent cell having a depth of 1 mm and light irradiation was performed using a fluorescence microscope (Olympus IX-73).

[3] = TEM analysis of dispersion liquid; type: physicochemical; settings: 1.0 wt % dispersion, irradiated with 450 nm light
Method: (§1) This dispersion liquid was incubated for 3 days in a dark place at 37° C. in a 5% CO2 atmosphere. Thereafter, the dispersion liquid was irradiated with 450 nm light and analyzed with a transmission electron microscope (JEOL JEM-1400).
as §1, with “nm or 550 nm” for “nm”, “absorption spectrum analysis was performed by infrared absorption spectroscopy analysis (IR) (JASCO FTIR-6100) and analysis was performed using” for “analyzed with”

[4] = Photoresponsiveness (UV-vis absorption spectrum after light irradiation); type: physicochemical; settings: 1 wt % dispersion in D-MEM with 4 mM HEPES, 25° C.; P1: 350 nm / 450 nm; P3: 540 nm / 450 nm
Method: The compound (P1) was dispersed in a D-MEM buffer solution including 4 mM HEPES to produce a dispersion liquid including 1 wt % of the compound (P1). This dispersion liquid was placed in a transparent cell having a depth of 1 mm and irradiated with light using a fluorescence microscope (Olympus IX-73). A U-HGLGPS (brightness: 130 W) was used as the light source for the fluorescence microscope and light was irradiated with a brightness output setting of 25%. The absorption spectrum and circular dichroism (CD) spectrum of the dispersion liquid after light irradiation were measured by ultraviolet-visible light spectroscopy. The measurements were performed at room temperature (25° C.).
This dispersion liquid was irradiated with 450 nm or 550 nm light and the absorption spectrum was analyzed by ultraviolet-visible spectroscopy (UV-vis) (JASCO V-650 spectrophotometer). Measurements were performed at room temperature (25° C.).

[5] = Evaluation of droplet stability (phase-contrast microscope); settings: 1 wt % compound, 5 wt % DEX550k, 5 wt % PEG35k
Method: A mixed aqueous solution including 5 wt % dextran (550 kDa; DEX550k), 0.002 wt % rhodamine-DEX550k, and 5 wt % polyethylene glycol (35 kDa; PEG35k) was produced in a microtube. Next, the compound (P1) was added to the mixed aqueous solution to be 1 wt % thereof, dissolved, and stirred for 1 minute using a vortex. Due to this, liquid-liquid phase-separated droplets were produced.
Liquid-liquid phase-separated droplets were produced by the same method as in <Droplet Production Example 1>. After production of the droplets, the droplets were left to stand for 24 hours and the state of the droplets was observed using a phase-contrast microscope.
Liquid-liquid phase-separated droplets were produced by the same method as in <Droplet Production Example 1>. After production of the droplets, the droplets were left to stand for 16 days and the state of the droplets was observed using a phase-contrast microscope.

[6] = Reversible gel-sol transition by light irradiation (test tube); type: physicochemical
Method: The compound (P1) was dispersed in a D-MEM buffer solution (4 mM HEPES, containing 1 wt % NaHCO3, pH 8.5) to produce a dispersion liquid including 1.0 wt % of the compound (P1). The dispersion liquid was placed in a test tube to observe the gel-sol transition caused by light irradiation. Incubation after the start of light irradiation was performed at 37° C. in a 5% CO2 atmosphere.
This dispersion liquid was placed in a test tube to observe the changes in gelation and solation caused by light irradiation. After the start of light irradiation, incubation was performed at 37° C. in a 5% CO2 atmosphere.

[7] = 1 wt % compound, 350 nm light for 5 seconds

Compound | gel formation (G' versus G'') [1] | change of droplets after 350 nm light [2, 7] | droplet fusion in light irradiated spot ([2]; 1 wt % compound, position-selective 350 nm light for 6 minutes) | change of droplets after 350 nm then 550 nm light ([2]; 1 wt % labeled compound, 350 nm light 5 seconds, then 550 nm light 5 seconds) | change of droplets, no light irradiation ([2]; 1 wt % labeled compound, operation (1) no light irradiation) | state of droplet dispersion liquid before irradiation with 350 nm light ([2]; Cy5-labeled compound, 1 wt %) | state of droplet dispersion liquid after irradiation with 350 nm light ([2]; Cy5-labeled compound, 1 wt %, 350 nm light for 5 seconds) | structure in TEM image, trans form [3] | photoisomerization of azobenzene structure on light irradiation [4] | time for which droplets were stably maintained ([5]; left to stand 24 hours) [h] | time after which droplets were still stably maintained ([5]; left to stand 16 days) [days] | state of dispersion liquid at start of light irradiation, cis form ([6]; 1.0 wt % in D-MEM buffer pH 8.5, 0 min) | state of dispersion liquid at start of light irradiation, trans form ([6]; 1.0 wt % in D-MEM buffer pH 8.5, 0 min / before irradiation) | state of trans-form dispersion liquid after 350 nm light ([6]; 1.0 wt %, 350 nm light for 15 minutes, 37° C., 5% CO2) | state of cis-form dispersion liquid after 450 nm light ([6]; 1.0 wt %, 450 nm light for 15 minutes, 37° C., 5% CO2)
CSCCC(NC(=O)C(CCCNC(=N)N)NC(=O)C(C)NC(=O)C(CC(=O)O)NC(=O)C(Cc1ccc(/N=N/c2ccccc2)cc1)NC(=O)C(CCCNC(=N)N)NC(C)=O)C(=O)NC(CCCNC(=N)N)C(N)=O (stereo not shown) [Compound (P1)] (Ac-R[X1]DARMR-NH2; configuration not given here) | a gel was formed | droplets which were larger than before the light irradiation were observed; also recorded: the size of the droplets significantly increased | a larger droplet was formed | the number of droplets decreased and the size of the droplets increased | no change was seen in the size of the droplets | gel state | sol state | formed a structure in a fibrous state | reversibly isomerized from the trans form to the cis form and from the cis form to the trans form | ≥ 24 | ≥ 16 | underwent solation | underwent gelation | underwent solation | underwent gelation
CSCCC(NC(=O)C(CCCNC(=N)N)NC(C)=O)C(=O)NC(CC(=O)O)C(=O)NC(C)C(=O)NC(CCCNC(=N)N)C(=O)NC(Cc1ccc(/N=N/c2ccccc2)cc1)C(=O)NC(CCCNC(=N)N)C(N)=O (stereo not shown) [Compound (P2)] (Ac-RMDAR[X1]R-NH2; configuration not given here) | – | larger droplets were formed | – | – | – | – | – | – | – | – | – | – | – | – | –
